Reference: EP1285659A1, “Use of clarithromycin compositions in the manufacture of a medicament for the treatment of arthritis deformans” (Fondazione Salvatore Maugeri, priority 2001, dated 2003)
Like-named read-outs stand apart in the source and are kept apart here.

Format: in vivo, patients
Text: The clinical experimentation has been carried out on 18 patients of which 14 females and 4 males, having an average age equal to 62 years selected by the inclusion and exclusion criteria as hereinafter reported. The patients submitted to the clinical experimentation suffered from arthritis deformans diagnosed according to the ARA International Criteria since at least two years, belonging to the 2th and 3rd functional classes according to Steinbrocker. The disease was clinically active notwithstanding the use of drugs known as Disease-Modifying AntiRheumatic Drugs ([…]) able to modify the course of the illness such as for example methotrexate azathioprine, chloroquine, hydroxychloroquine and ciclosporin and notwithstanding the use of steroid and not steroid anti-inflammatory drugs. The patients suffering from arthritis deformans of 4th functional class according to Steinbrocker have been excluded from the experimentation that is the patients invalid with permanent injuries, the patients with associated serious systemic diseases, relevant psychiatric and neuropathic diseases, the drug addicts, the patients suffering from hypersensitivity to the macrolides and the patients under treatment with carbamazepine, ciclosporin and antihistamines. The clarithromycin administration started after the suspension of the Disease-Modifying AntiRheumatic Drugs since one month. In six patients who were assuming a steroid anti-inflammatory drug since at least two weeks, the administration of the same steroid drug with a 6 mg dose of prednisonic equivalent has been associated to the administration of clarithromycin. The administration of clarithromycin was 500 mg twice a day for 8-14 days and subsequently a customized dosage from 500 to 2,000 mg per day in one or two administrations has been applied. The control of the patients has been periodically carried out on 0, 10, 30, 60, 90 and 180 days by medical examination and determination of the haematochemical and functional indexes. In particular the following indexes have been controlled: • HAQ (Health Assessment Questionnaire, 1986), internationally validated as reference functional index in the rheumatic disease; • VAS (Visuanalogic Ache Scale according to Scott Huskisson); • ESR (Erythro Sedimentation Rate).

[1] = Day 180, clarithromycin 500 mg twice a day for 8-14 days, then 500 to 2,000 mg per day, p < 0.05 (Mann-Whitney U test)

Structure (SMILES): CC[C@H]1OC(=O)[C@H](C)[C@@H](O[C@H]2C[C@@](C)(OC)[C@@H](O)[C@H](C)O2)[C@H](C)[C@@H](O[C@@H]2O[C@H](C)C[C@H](N(C)C)[C@H]2O)[C@](C)(OC)C[C@@H](C)C(=O)[C@H](C)[C@@H](O)[C@]1(C)O [clarithromycin]
- ESR (Day 0 (baseline, before clarithromycin), 18 patients, Erythro Sedimentation Rate): 44.8 ± 8.4
- HAQ (Day 0 (baseline, before clarithromycin), 18 patients, Health Assessment Questionnaire): 20.2 ± 2.6
- VAS (Day 0 (baseline, before clarithromycin), 18 patients, Visuanalogic Ache Scale according to Scott Huskisson): 4.7 ± 0.51
- HAQ (Day 180, clarithromycin 500 mg twice a day for 8-14 days, then 500 to 2,000 mg per day, p < 0.0001 (Mann-Whitney U test)): 5.5 ± 0.51 (a)
- ESR [1]: 27 ± 5.8 (c)
- VAS [1]: 1.32 ± 0.44 (b)
- side effect ascribable to the drug (human, in vivo): No significant side effect
- patients not responding (number of patients out of 18): 4
- patients responding to the therapy (number of patients out of 18): 14
- reduction of the symptomatology (starting from the second week of treatment): significant reduction of the symptomatology
